Laboratory results published in patent US20250376507A1, “NOVEL TUMOR ANTIGEN-TARGETING ANTICANCER AGENT” (INDUSTRY FOUNDATION OF CHONNAM NATIONAL UNIVERSITY, priority 2022, published 2025).

Legend:
CT-26 cells = assay: Cell viability (CCK-8) of CT-26 cells; format: cell-based, mouse; settings: 4 h pretreatment with anticancer agent alone
Experimental: CT-26 and MC-38 cells (10^4 cells per well) were seeded into three wells of a 96-well plate and incubated at 37° C. The next day, the culture medium was replaced with 100 μL of fresh medium containing the above concentrations of anticancer agents. After incubation at 37° C. for 4 h, the culture medium was removed and the cells were washed three times with PBS. […] Finally, CCK-8 reagent (10 μL/well) was added for 3 h at 37° C., and the amount of color in each sample was measured at OD450.

CT-26 tumor = assay: In vivo anti-cancer efficacy in CT-26 tumor-bearing mice
Experimental: CT-26 and MC-38 tumor cells (106 in 100 μL PBS) were implanted subcutaneously into the right flanks of 6-week-old BALB/c and C57BL/6 female mice (Orient company, Korea), respectively. When the tumors reached about 100 mm^3, the tumor-bearing mice were injected intraperitoneally with anticancer agents (15 mg/kg GEM, 10 mg/kg DOX or 2 mg/kg MTX) three times every 2 days. Simultaneously, the mice were injected intravenously with the PASylated recombinant proteins of the present invention five times every 2 days. The length (L), width (W), and height (H) of each tumor were recorded every 3 days using a digital caliper, and the tumor volume (mm3) was calculated using the following formula (L×H×W)/2. Mice were euthanized when tumors were ˜1,500 mm^3 and all animal experiments were performed in accordance with the general principles and procedures outlined in the National Institutes of Health Guidelines, and all protocols were approved by the Chonnam National University Animal Care and Use Committee (permit number: HCRL 16-001).

## O=C1c2c(O)ccc(O)c2C(=O)c2c(NCCNCCO)ccc(NCCNCCO)c21 [MTX, mitozantrone, reference compound]
CT-26 cells
  decrease in cell viability by pretreatment with anticancer agents: 62.3%

## Nc1ccn([C@@H]2O[C@H](CO)[C@@H](O)C2(F)F)c(=O)n1 [GEM, gemcitabine, reference compound]
CT-26 cells
  decrease in cell viability by pretreatment with anticancer agents: 45.1%

## COc1cccc2c1C(=O)c1c(O)c3c(c(O)c1C2=O)C[C@@](O)(C(=O)CO)C[C@@H]3O[C@H]1C[C@H](N)[C@H](O)[C@H](C)O1 [DOX, doxorubicin, reference compound]
CT-26 cells
  decrease in cell viability by pretreatment with anticancer agents: 57.9%
CT-26 tumor; day 12, combination with DOX, 8 IU/mouse
  average tumor weight: 304.8 mg
CT-26 tumor; dose-finding study, DOX 10 mg/kg i.p. x3, CRT3LP i.v. x5, n=3
  tumor growth: grew more slowly than untreated tumors
